Patent publication US8362065B2, “Carbazole carboxamide compounds useful as kinase inhibitors” (Bristol-Myers Squibb Company, priority 2008, dated 2013)
Structures can show the parent of a compound that is named as a salt.

target: T1, human recombinant Btk (Homo sapiens, UniProt Q06187); experiment: Human Recombinant Btk Enzyme Assay; assay type: biochemical; conditions: human recombinant Btk 1 nM, ATP 20 μM, 60 min at room temperature; read-out: IC50 for Inhibition of Btk
T1 construct: purchased Invitrogen Corporation
T1 sequence (Q06187 whole entry): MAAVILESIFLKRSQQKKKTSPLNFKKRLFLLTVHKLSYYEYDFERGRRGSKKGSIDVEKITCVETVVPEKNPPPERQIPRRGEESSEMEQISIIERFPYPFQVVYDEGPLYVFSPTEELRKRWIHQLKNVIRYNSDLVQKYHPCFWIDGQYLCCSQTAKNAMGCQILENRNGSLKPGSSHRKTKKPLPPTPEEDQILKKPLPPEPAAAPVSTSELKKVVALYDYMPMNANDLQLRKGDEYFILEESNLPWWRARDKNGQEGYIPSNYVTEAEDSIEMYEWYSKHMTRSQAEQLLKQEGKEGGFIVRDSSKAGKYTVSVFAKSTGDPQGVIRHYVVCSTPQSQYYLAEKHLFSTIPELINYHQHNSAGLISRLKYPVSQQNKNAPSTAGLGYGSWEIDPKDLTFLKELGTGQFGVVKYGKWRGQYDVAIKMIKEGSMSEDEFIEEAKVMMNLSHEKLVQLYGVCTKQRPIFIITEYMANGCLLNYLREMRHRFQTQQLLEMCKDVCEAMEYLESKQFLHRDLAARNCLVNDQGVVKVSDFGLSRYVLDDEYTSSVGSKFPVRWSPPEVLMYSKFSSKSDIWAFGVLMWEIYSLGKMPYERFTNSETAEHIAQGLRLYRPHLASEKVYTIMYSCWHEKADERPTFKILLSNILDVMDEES

SMILES	IC50 [nM]
Cc1c(-c2ccc(C(N)=O)c3[nH]c4cc(C(O)CO)ccc4c23)cccc1N1Cc2ccc(F)cc2C1=O (centres unmarked) [Example 70-10]	1
Cc1c(-c2ccc(C(N)=O)c3[nH]c4cc(C(O)CO)ccc4c23)cccc1N1Cc2ccc(F)cc2C1=O (racemic) [Example 70-6, 7-((RS)-1,2-dihydroxyethyl)-4-(3-(6-fluoro-1-oxoisoindolin-2-yl)-2-methylphenyl)-9H-carbazole-1-carboxamide]	0.8
Cc1c(NC(=O)c2ccc(F)cc2)cccc1-c1ccc(C(N)=O)c2[nH]c3cc(NC(=O)CCN4CCOCC4)ccc3c12 [Example 57-18]	2.2
Cc1ccc2c(c1)C(=O)N(c1cccc(-c3ccc(C(N)=O)c4[nH]c5cc(C(O)CO)ccc5c34)c1C)C2 (centres unmarked) [Example 70-11, 7-(1,2-dihydroxyethyl)-4-(2-methyl-3-(6-methyl-1-oxoisoindolin-2-yl)phenyl)-9H-carbazole-1-carboxamide]	1.4
CN1CCN(C(=O)c2ccc3c(c2)[nH]c2c(C(N)=O)ccc(-c4cccc5[nH]c(C(=O)N6CCCC6)cc45)c23)CC1 [Example 3-75]	920
Cc1c(NC(=O)c2ccc(F)cc2)cccc1-c1ccc(C(N)=O)c2[nH]c3cc(C(O)CO)ccc3c12 (racemic) [Example 70-2]	2.2
Cc1c(NC(=O)c2ccccn2)cccc1-c1ccc(C(N)=O)c2[nH]c3c(c12)CCC(NC(=O)OCc1ccccc1)C3 (centres unmarked) [Example 52-2, benzyl 8-carbamoyl-5-(2-methyl-3-(picolinamido)phenyl)-2,3,4,9-tetrahydro-1H-carbazol-2-ylcarbamate]	520
Cc1c(NC(=O)c2ccc(F)cc2)cccc1-c1ccc(C(N)=O)c2[nH]c3cc(NC(=O)CCCN4CCOCC4)ccc3c12 [Example 57-16]	2.1
Cc1c(NC(=O)c2ccc(F)cc2)cccc1-c1ccc(C(N)=O)c2[nH]c3cc(NC(=O)[C@H](C)N)ccc3c12 [Example 57-3, 7-((S)-2-aminopropanamido)-4-(3-(4-fluorobenzamido)-2-methylphenyl)-9H-carbazole-1-carboxamide]	2.1
Cc1c(-c2ccc(C(N)=O)c3[nH]c4cc(O)ccc4c23)cccc1N1Cc2ccccc2C1=O [Example 41-1, 7-hydroxy-4-(2-methyl-3-(1-oxoisoindolin-2-yl)phenyl)-9H-carbazole-1-carboxamide]	16
Cc1ccc2c(c1)C(=O)N(c1cccc(-c3ccc(C(N)=O)c4[nH]c5cc(N6CCC(C)(C)C6=O)ccc5c34)c1C)C2 [Example 66-37]	15
Cc1c(-c2ccc(C(N)=O)c3[nH]c4cc(C(C)(C)O)ccc4c23)cccc1-n1ccn2ccnc2c1=O [Example 76-2, 7-(2-hydroxypropan-2-yl)-4-(2-methyl-3-(8-oxoimidazo[1,2-a]pyrazin-7(8 H)-yl)phenyl)-9H-carbazole-1-carboxamide]	1.3
Cc1c(NC(=O)c2ccc(F)cc2)cccc1-c1ccc(C(N)=O)c2[nH]c3cc(NC(=O)c4ccc(C#N)cc4)ccc3c12 [Example 57-20]	15
Cc1c(NC(=O)c2ncc[nH]2)cccc1-c1ccc(C(N)=O)c2[nH]c3cc(C(=O)N4CCN(C)CC4)ccc3c12 [Example 5-9, 4-(3-(1H-imidazole-2-carboxamido)-2-methylphenyl)-7-(4-methylpiperazine-1-carbonyl)-9H-carbazole-1-carboxamide (prepared as the TFA salt)]	1.9

Further compounds by falling IC50, results first:

IC50 [nM]	SMILES
4900	Cc1c(-c2ccc(C(N)=O)c3[nH]c4cc(C(=O)N5CCN(C)CC5)ccc4c23)cccc1N(C(C)C)S(C)(=O)=O (single isomer, unassigned) [Example 10-3, 4-(3-(N-isopropylmethylsulfonamido)-2-methylphenyl)-7-(4-methylpiperazine-1-carbonyl)-9H-carbazole-1-carboxamide]
4200	NC(=O)c1ccc(-c2ccccc2F)c2c3c([nH]c12)CCC(Oc1ccccc1)C3 (centres unmarked) [Example 47-2, 5-(2-fluorophenyl)-3-phenoxy-2,3,4,9-tetrahydro-1H-carbazole-8-carboxamide]
1300	NC(=O)c1ccc(Br)c2c1[nH]c1cc(NC(=O)OCc3ccccc3)ccc12 [Example 50-3, benzyl 5-bromo-8-carbamoyl-9H-carbazol-2-ylcarbamate]
410	Cc1c(NC(=O)c2ccc(F)cc2)cccc1-c1ccc(C(N)=O)c2[nH]c3cc(C(=O)Nc4ccc(F)cc4)ccc3c12 [Example 24-34, 4-(3-(4-fluorobenzamido)-2-methylphenyl)-N^7-(4-fluorophenyl)-9H-carbazole-1,7-dicarboxamide (prepared as the TFA salt)]
400	Cc1c(N)cccc1-c1ccc(C(N)=O)c2[nH]c3c(c12)CCC(NC(=O)OCc1ccccc1)C3 (centres unmarked) [Example 51-1, benzyl 5-(3-amino-2-methylphenyl)-8-carbamoyl-2,3,4,9-tetrahydro-1H-carbazol-2-ylcarbamate]
18	Cc1c(-c2ccc(C(N)=O)c3[nH]c4c(c23)CCC(C(C)(C)O)C4)cccc1-n1c(C)nc2ccccc2c1=O (centres unmarked) [Example 76-10, 2-(2-hydroxypropan-2-yl)-5-(2-methyl-3-(2-methyl-4-oxoquinazolin-3(4H)-yl)phenyl)-2,3,4,9-tetrahydro-1H-carbazole-8-carboxamide]
17	Cc1c(NS(=O)(=O)CCCCl)cccc1-c1ccc(C(N)=O)c2[nH]c3cc(C(=O)N4CCN(C)CC4)ccc3c12 [Example 10-4, 4-(3-(3-chloropropylsulfonamido)-2-methylphenyl)-7-(4-methylpiperazine-1-carbonyl)-9H-carbazole-1-carboxamide]
16	Cc1ccc2c(c1)CN(c1cncc(-c3ccc(C(N)=O)c4[nH]c5cc(NC(C)C)ccc5c34)c1C)C2=O [Example 66-2, 7-(isopropylamino)-4-(4-methyl-5-(5-methyl-1-oxoisoindolin-2-yl)pyridin-3-yl)-9H-carbazole-1-carboxamide]
16	NC(=O)c1ccc(-c2cc(C(=O)O)ccc2F)c2c1[nH]c1cc(C(=O)N3CCOCC3)ccc12 [Example 2-16, 3-(1-carbamoyl-7-(morpholine-4-carbonyl)-9H-carbazol-4-yl)-4-fluorobenzoic acid]
15	Cc1c(NC(=O)c2ccc(F)cc2)cccc1-c1ccc(C(N)=O)c2[nH]c3cc(C(=O)N4CCN(CCO)CC4)ccc3c12 [Example 24-17, 4-(3-(4-fluorobenzamido)-2-methylphenyl)-7-(4-(2-hydroxyethyl)piperazine-1-carbonyl)-9H-carbazole-1-carboxamide (prepared as the TFA salt)]
15	Cc1c(Nc2nccc3ccccc23)cccc1-c1ccc(C(N)=O)c2[nH]c3cc(C(=O)N4CCN(C)CC4)ccc3c12 [Example 11-1, 4-(3-(isoquinolin-1-ylamino)-2-methylphenyl)-7-(4-methylpiperazine-1-carbonyl)-9H-carbazole-1-carboxamide]
2	Cc1c(NC(=O)c2ccc(S(N)(=O)=O)cc2)cccc1-c1ccc(C(N)=O)c2[nH]c3cc(C(=O)N4CCN(C)CC4)ccc3c12 [Example 5-69, 4-(2-methyl-3-(4-sulfamoylbenzamido)phenyl)-7-(4-methylpiperazine-1-carbonyl)-9H-carbazole-1-carboxamide (prepared as the TFA salt)]
